Earlier results as cited in patent publication US8871812B2, “Therapeutic regimen comprising PEG-interferon, ribavirin and VX-950 for the treatment of hepatitis” (priority 2008, dated 2014).

Test system: HCV
Conditions: monotherapy; cited from earlier work

interferon alfa
cases with long term remission: ~25%
